In ChEMBL document CHEMBL4414553, “Imidazopyridine-based selective and multifunctional ligands of biological targets associated with psychiatric and neurodegenerative diseases” (Eur J Med Chem, 2019):

Columns and labels:
Orexin receptor type 2 = target: T1, Orexin receptor type 2 (Homo sapiens, UniProt O43614); assay: Antagonist activity at human OX2R expressed in CHOK1 cells by Syto62 probe based fluorescence assay; format: cell-based
T1 sequence (O43614 whole entry): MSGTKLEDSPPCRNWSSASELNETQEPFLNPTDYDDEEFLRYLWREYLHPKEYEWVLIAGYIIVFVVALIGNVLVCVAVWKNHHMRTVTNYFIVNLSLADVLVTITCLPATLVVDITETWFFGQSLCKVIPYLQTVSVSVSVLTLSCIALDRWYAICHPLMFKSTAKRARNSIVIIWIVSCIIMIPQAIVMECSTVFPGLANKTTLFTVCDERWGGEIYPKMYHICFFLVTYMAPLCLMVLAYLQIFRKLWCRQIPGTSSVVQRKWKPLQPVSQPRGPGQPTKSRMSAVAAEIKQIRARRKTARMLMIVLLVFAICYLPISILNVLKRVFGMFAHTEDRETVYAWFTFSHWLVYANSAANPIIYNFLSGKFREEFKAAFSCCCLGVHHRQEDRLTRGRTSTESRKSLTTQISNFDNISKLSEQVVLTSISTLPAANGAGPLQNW

[1] = target: T2, Orexin/Hypocretin receptor type 1 (Homo sapiens, UniProt O43613); assay: Antagonist activity at human OX1R expressed in CHOK1 cells by Syto62 probe based fluorescence assay; format: cell-based
T2 sequence (O43613 whole entry): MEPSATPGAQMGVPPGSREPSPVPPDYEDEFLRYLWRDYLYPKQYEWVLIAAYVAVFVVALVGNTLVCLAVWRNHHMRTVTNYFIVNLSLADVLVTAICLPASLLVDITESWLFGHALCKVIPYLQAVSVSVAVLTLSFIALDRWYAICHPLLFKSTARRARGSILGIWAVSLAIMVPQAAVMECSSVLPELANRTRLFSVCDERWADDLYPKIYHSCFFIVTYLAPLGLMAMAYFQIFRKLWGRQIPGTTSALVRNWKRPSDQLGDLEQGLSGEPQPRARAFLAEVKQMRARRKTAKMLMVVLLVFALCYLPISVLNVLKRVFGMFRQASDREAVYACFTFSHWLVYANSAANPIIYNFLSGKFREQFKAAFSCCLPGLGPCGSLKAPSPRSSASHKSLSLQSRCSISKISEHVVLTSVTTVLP

IC50 (Orexin receptor type 2): > 5870 nM | IC50 [1]: 89 nM
SMILES: O=C(c1nccc2[nH]cnc12)N1CCC(F)(F)C(Oc2ccc3ccccc3n2)C1 (configuration not stated)
